Read-outs that look alike come from different tables or passages of the source.
Experiments:
5-HT2A receptor = 5-HT2A receptor (Homo sapiens (Human), UniProt P28223); experiment: Radioligand binding ([3H]-ketanserin) to cloned 5-HT2A receptor expressed in HEK-293 EBNA cells
Experimental: (§1) HEK293 EBNA cells were transiently transfected with expression plasmids encoding for the human D2 or D3 or for the human 5-HT2A receptor, respectively. The cells were harvested 48 h post-transfection, washed three times with cold PBS and stored at −80° C. prior to use. The pellet was suspended in cold 50 mM Tris-HCl buffer containing 10 mM EDTA (pH 7.4) and was homogenized with a Polytron (Kinematica AG, Basel, Switzerland) for 20-30 sec at 12.000 rpm. After centrifugation at 48.000×g for 30 min at 4° C., the pellet was resuspended in cold 10 mM Tris-HCl buffer containing 0.1 mM EDTA (pH 7.4), homogenized, and centrifuged as above. This pellet was further resuspended in a smaller volume of ice cold 10 mM Tris-HCl buffer containing 0.1 mM EDTA (pH 7.4) and homogenized with a Polytron for 20-30 sec at 12.000 rpm. The protein content of this homogenate was determined with the Bio-Rad (Bradford) Protein Assay (Biorad Laboratories GmbH, München, Germany) according to the instructions of the manufacturer using gamma globulin as the standard. This homogenate was stored at −80° C. in aliquots and thawed immediately prior to use.
(§2) Radioligand Binding Assay
(§3) Aliquots of membrane preparations were thawed at RT, resupended in assay buffer (D2, D3: 50 mM Tris-HCl, 120 mM NaCl, 5 mM MgCl2, 1 mM EDTA, 5 mM KCl, 1.5 mM CaCl2, pH=7.4; 5-HT2A: 50 mM Tris-HCl, 10 mM MgCl2, 1 mM EGTA, pH=7.4), homogenized with a Polytron for 20-30 sec at 12.000 rpm and adjusted to a final concentration of approximately 7.5 μg protein/well (D2, D3) and 15 μg protein/well (5-HT2A), respectively.
(§4) The binding affinity (Ki) of the compounds was determined using radioligand binding. […] The nonspecific binding was determined with equally composed reaction mixtures in the presence of 10 μM unlabelled spiperone. Per well 45 μl of Microscint 40 (Perkin Elmer, Schwerzenbach, Switzerland) was added, plates for sealed, shaken for 20 min and counted for 3 min on a Topcount Microplate Scintillation Counter (Canberra Packard SA, Zürich, Switzerland) with quenching correction.
(§5) The CPM value for each duplicate of a concentration of competing compound was averaged (y1), then the % specific binding was calculated according to the equation (((y1−non-specific)/(total binding−non-specific))×100). Graphs were plotted with the % specific binding using XLfit, a curve fitting program that iteratively plots the data using Levenberg-Marquardt algorithm. The single site competition analysis equation used was y=A+((B−A)/(1+((x/C)D))), where y is the % specific binding, A is the minimum y, B is the maximum y, C is the IC50, x is the log 10 of the concentration of the competing compound and D is the slope of the curve (the Hill Coefficient). […] The affinity constant (Ki) was calculated using the Cheng-Prusoff equation Ki=(IC50/1+([L]/Kd), where [L] is the concentration of radioligand and Kd is the dissociation constant of the radioligand at the receptor as determined by the saturation isotherm.

D2 receptor = D2 receptor (Homo sapiens (Human), UniProt P14416); experiment: Radioligand binding ([3H]-spiperone) to cloned D2 receptor expressed in HEK-293 EBNA cells; settings: HEK293 EBNA membranes, 0.7 nM [3H]-spiperone
Chain of D2 receptor (P14416 whole entry): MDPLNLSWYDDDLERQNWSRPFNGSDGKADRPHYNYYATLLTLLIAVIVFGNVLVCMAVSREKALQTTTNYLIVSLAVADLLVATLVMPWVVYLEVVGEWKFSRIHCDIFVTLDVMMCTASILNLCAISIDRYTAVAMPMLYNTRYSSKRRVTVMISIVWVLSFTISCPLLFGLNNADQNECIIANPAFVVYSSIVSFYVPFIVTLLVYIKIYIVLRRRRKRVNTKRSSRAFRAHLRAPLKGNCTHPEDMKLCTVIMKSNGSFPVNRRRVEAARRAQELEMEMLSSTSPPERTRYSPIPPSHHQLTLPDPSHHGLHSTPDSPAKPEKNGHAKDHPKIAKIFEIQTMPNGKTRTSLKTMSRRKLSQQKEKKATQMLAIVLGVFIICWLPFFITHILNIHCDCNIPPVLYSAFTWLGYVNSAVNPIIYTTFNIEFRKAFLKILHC
Experimental: as §1, §2, §3, §4, §5

D3 receptor = D3 receptor (Homo sapiens (Human), UniProt P35462); experiment: Radioligand binding ([3H]-spiperone) to cloned D3 receptor expressed in HEK-293 EBNA cells; settings: HEK293 EBNA membranes, 0.5 nM [3H]-spiperone
Chain of D3 receptor (P35462 whole entry): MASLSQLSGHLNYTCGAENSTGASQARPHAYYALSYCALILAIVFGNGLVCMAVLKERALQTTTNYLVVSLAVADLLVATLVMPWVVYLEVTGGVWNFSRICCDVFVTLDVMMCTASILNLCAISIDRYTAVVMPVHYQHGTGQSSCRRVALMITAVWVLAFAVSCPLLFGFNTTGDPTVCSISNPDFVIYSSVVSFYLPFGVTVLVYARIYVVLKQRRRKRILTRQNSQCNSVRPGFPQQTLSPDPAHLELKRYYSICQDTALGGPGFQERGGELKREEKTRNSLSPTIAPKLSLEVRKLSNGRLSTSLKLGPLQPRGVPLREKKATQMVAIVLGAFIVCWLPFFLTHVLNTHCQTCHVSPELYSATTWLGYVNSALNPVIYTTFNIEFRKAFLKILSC
Experimental: as §1, §2, §3
The binding affinity (Ki) of the compounds was determined using radioligand binding. […] At the end of the incubation, the reaction mixtures were filtered on to unifilter 96-well white microplates with bonded GF/C filters (Packard BioScience, Zürich, Switzerland; preincubated for 1 h in 0.1% polyethylenimine (PEI) in assay buffer) with a Filtermate 196 harvester (Packard BioScience) and washed 3 times with cold assay buffer. The nonspecific binding was determined with equally composed reaction mixtures in the presence of 10 μM unlabelled spiperone. Per well 45 μl of Microscint 40 (Perkin Elmer, Schwerzenbach, Switzerland) was added, plates for sealed, shaken for 20 min and counted for 3 min on a Topcount Microplate Scintillation Counter (Canberra Packard SA, Zürich, Switzerland) with quenching correction.
as §5

[1] = human 5-HT2A receptor, HEK293 EBNA membranes, 1.1 nM [3H]-ketanserin

Chain of 5-HT2A receptor (P28223 whole entry): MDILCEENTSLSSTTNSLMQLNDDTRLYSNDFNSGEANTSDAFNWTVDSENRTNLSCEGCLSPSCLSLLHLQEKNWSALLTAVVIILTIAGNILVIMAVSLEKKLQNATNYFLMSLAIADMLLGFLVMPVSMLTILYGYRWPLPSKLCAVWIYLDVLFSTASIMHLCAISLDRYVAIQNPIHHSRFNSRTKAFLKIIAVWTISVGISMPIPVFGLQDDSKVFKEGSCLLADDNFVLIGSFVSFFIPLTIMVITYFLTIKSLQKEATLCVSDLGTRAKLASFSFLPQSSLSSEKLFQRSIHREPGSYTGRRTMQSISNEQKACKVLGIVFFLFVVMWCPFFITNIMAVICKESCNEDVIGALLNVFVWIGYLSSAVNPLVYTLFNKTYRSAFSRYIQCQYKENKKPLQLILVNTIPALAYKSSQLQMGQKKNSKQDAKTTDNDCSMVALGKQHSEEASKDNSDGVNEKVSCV

Row | Ki (5-HT2A receptor; [1]) | Ki (D2 receptor) | Ki (D3 receptor) | Structure (SMILES) | Ki (5-HT2A receptor)
1 | 26.2 nM | 137 nM |  | O=C(C[C@@H]1CCCOC1)N[C@H]1CC[C@H](CCN2CCN(c3cccc4c3OCO4)CC2)CC1 (single isomer, unassigned) [Example 32, Trans-N-{4-[2-(4-Benzo[1,3]dioxol-4-yl-piperazin-1-yl)-ethyl]-cyclohexyl}-2-(S) or (R)-tetrahydro-pyran-3-yl-acetamide] | 
2 | 24.4 nM | 184 nM |  | O=C(C[C@H]1CCCOC1)N[C@H]1CC[C@H](CCN2CCN(c3cccc4c3OCO4)CC2)CC1 (single isomer, unassigned) [Example 33, Trans-N-{4-[2-(4-Benzo[1,3]dioxol-4-yl-piperazin-1-yl)-ethyl]-cyclohexyl}-2-(R) or (S)-tetrahydro-pyran-3-yl-acetamide] | 
3 |  | 112 nM | 19.9 nM | CO[C@H](C(=O)N[C@H]1CC[C@H](CCN2CCN(c3cccc4c3OCO4)CC2)CC1)C(C)C [Example 65, (S)-trans-N-{4-[2-(4-Benzo[1,3]dioxol-4-yl-piperazin-1-yl)-ethyl]-cyclohexyl}-2-methoxy-3-methyl-butyramide] | 
4 |  | 73.8 nM | 1.88 nM | O=S(=O)(CC(F)(F)F)N[C@H]1CC[C@H](CCN2CCN(c3cccc4c3OCO4)CC2)CC1 [Example 66, 2,2,2-Trifluoro-ethanesulfonic acid-trans-N-{4-[2-(4-benzo[1,3]dioxol-4-yl-piperazin-1-yl)-ethyl]-cyclohexyl}-amide] | 
5 |  | 46.2 nM | 2.2 nM | O=S(=O)(N[C@H]1CC[C@H](CCN2CCN(c3cccc4c3OCO4)CC2)CC1)c1ccc(F)cc1 [Example 68, N-trans-{4-[2-(4-Benzo[1,3]dioxol-4-yl-piperazin-1-yl)-ethyl]-cyclohexyl}-4-fluoro-benzenesulfonamide] | 
6 |  | 113 nM | 4.91 nM | O=C(N[C@H]1CC[C@H](CCN2CCN(c3cccc4c3OCO4)CC2)CC1)C(F)(F)F [Example 70, N-trans-{4-[2-(4-Benzo[1,3]dioxol-4-yl-piperazin-1-yl)-ethyl]-cyclohexyl}-2,2,2-trifluoro-acetamide] | 
7 |  | 241 nM | 2.01 nM | O=C(N[C@H]1CC[C@H](CCN2CCN(c3cccc4c3OCO4)CC2)CC1)N1CCc2ccccc21 [Example 71, 2,3-Dihydro-indole-1-carboxylic acid-trans-N-{4-[2-(4-benzo[1,3]dioxol-4-yl-piperazin-1-yl)-ethyl]-cyclohexyl}-amide] | 
8 |  | 30.4 nM | 11.2 nM | CN(C)C(=O)N[C@H]1CC[C@H](CCN2CCN(c3cccc4c3OCO4)CC2)CC1 [Example 72, N-trans-3-{4-[2-(4-Benzo[1,3]dioxol-4-yl-piperazin-1-yl)-ethyl]-cyclohexyl}-1,1-dimethyl-urea] | 
9 |  | 117 nM | 2.44 nM | O=C(C[C@H]1C[C@H](CO)C1)N[C@H]1CC[C@H](CCN2CCN(c3cccc4c3OCO4)CC2)CC1 [Example 74, N-trans-{4-[2-(4-Benzo[1,3]dioxol-4-yl-piperazin-1-yl)-ethyl]-cyclohexyl}-2-(3-hydroxymethyl-cyclobutyl)-acetamide] | 
10 |  | 158 nM | 1.04 nM | O=C(Nc1ccc(Cl)cc1)N[C@H]1CC[C@H](CCN2CCN(c3cccc4c3OCO4)CC2)CC1 [Example 75, N-trans-1-{4-[2-(4-Benzo[1,3]dioxol-4-yl-piperazin-1-yl)-ethyl]-cyclohexyl}-3-(4-chloro-phenyl)-urea] | 
11 |  | 63 nM | 1.29 nM | O=S(=O)(N[C@H]1CC[C@H](CCN2CCN(c3cccc4c3OCO4)CC2)CC1)N1CCOCC1 [Example 77, Morpholine-4-sulfonic acid-trans-N-{4-[2-(4-benzo[1,3]dioxol-4-yl-piperazin-1-yl)-ethyl]-cyclohexyl}-amide] | 
12 | 13.4 nM | 198 nM |  | [2H]C1([2H])Oc2cccc(N3CCN(CC[C@H]4CC[C@H](NC(=O)C[C@H]5COCCO5)CC4)CC3)c2O1 [Example 78, N-trans-{4-[2-(4-Benzo(2,2-D2)-[1,3]dioxol-4-yl-piperazin-1-yl)-ethyl]-cyclohexyl}-2-(S)-[1,4]dioxan-2-yl-acetamide] | 
13 |  | 146 nM | 4.98 nM | [2H]C1([2H])Oc2cccc(N3CCN(CC[C@H]4CC[C@H](NC(=O)COC)CC4)CC3)c2O1 [Example 79, N-trans-{4-[2-(4-Benzo(2,2-D2) [1,3]dioxol-4-yl-piperazin-1-yl)-ethyl]-cyclohexyl}-2-methoxy-acetamide] | 
14 |  | 105 nM | 2.23 nM | [2H]C1([2H])Oc2cccc(N3CCN(CC[C@H]4CC[C@H](NC(=O)C(C)C)CC4)CC3)c2O1 [Example 80, N-trans-{4-[2-(4-Benzo(2,2-D2) [1,3]dioxol-4-yl-piperazin-1-yl)-ethyl]-cyclohexyl}-isobutyramide] | 
15 |  | 97.2 nM | 6.28 nM | [2H]C1([2H])Oc2cccc(N3CCN(CC[C@H]4CC[C@H](NC(=O)C(C)(C)O)CC4)CC3)c2O1 [Example 81, N-trans-{4-[2-(4-Benzo(2,2-D2)-[1,3]dioxol-4-yl-piperazin-1-yl)-ethyl]-cyclohexyl}-2-hydroxy-2-methyl-propionamide] | 
16 |  | 148 nM | 5.73 nM | [2H]C1([2H])Oc2cccc(N3CCN(CC[C@H]4CC[C@H](NC(=O)[C@@H](C)OC)CC4)CC3)c2O1 [Example 82, (R)—N-trans{4-[2-(4-Benzo(2,2-D2)-[1,3]dioxol-4-yl-piperazin-1-yl)-ethyl]-cyclohexyl}-2-methoxypropanamide] | 

Row | Structure (SMILES) | Ki (5-HT2A receptor; [1]) | Ki (D2 receptor) | Ki (D3 receptor) | Ki (5-HT2A receptor)
17 | O=C(C[C@H]1COCCO1)N[C@H]1CC[C@H](CCN2CCN(c3cccc4c3OCO4)CC2)CC1 (single isomer, unassigned) [Example 4, Trans-N-{4-[2-(4-Benzo[1,3]dioxol-4-yl-piperazin-1-yl)-ethyl]-cyclohexyl}-2-(S) or (R)[1,4]dioxan-2-yl-acetamide] | 7.78 nM |  |  | 
18 | O=C(C[C@@H]1COCCO1)N[C@H]1CC[C@H](CCN2CCN(c3cccc4c3OCO4)CC2)CC1 (single isomer, unassigned) [Example 5, Trans-N-{4-[2-(4-Benzo[1,3]dioxol-4-yl-piperazin-1-yl)-ethyl]-cyclohexyl}-2-(R) or (S)-[1,4]dioxan-2-yl-acetamide] | 12.3 nM |  |  | 
19 | O=C(CC1COCCO1)N[C@H]1CC[C@H](CCN2CCN(c3cccc4c3OCO4)CC2)CC1 (stereo partly drawn) [Example 3, Trans-N-{4-[2-(4-Benzo[1,3]dioxol-4-yl-piperazin-1-yl)-ethyl]-cyclohexyl}-2-[1,4]dioxan-2-yl-acetamide] |  | 198 nM |  | 11.8 nM
20 | O=C(N[C@H]1CC[C@H](CCN2CCN(c3cccc4c3OCO4)CC2)CC1)C1CC1(F)F (stereo partly drawn) [Example 20, Trans-2,2-Difluoro-cyclopropanecarboxylic acid {4-[2-(4-benzo[1,3]dioxol-4-yl-piperazin-1-yl)-ethyl]-cyclohexyl}-amide] |  | 144 nM | 2.55 nM | 26.8 nM
21 | COC(C)CC(=O)N[C@H]1CC[C@H](CCN2CCN(c3cccc4c3OCO4)CC2)CC1 (stereo partly drawn) [Example 21, Trans-N-{4-[2-(4-Benzo[1,3]dioxol-4-yl-piperazin-1-yl)-ethyl]-cyclohexyl}-3-methoxy-butyramide] |  | 181 nM | 2.76 nM | 24.3 nM
22 | CCC(O)C(=O)N[C@H]1CC[C@H](CCN2CCN(c3cccc4c3OCO4)CC2)CC1 (stereo partly drawn) [Example 38, Trans-N-{4-[2-(4-Benzo[1,3]dioxol-4-yl-piperazin-1-yl)-ethyl]-cyclohexyl}-2-hydroxy-butyramide] |  | 122 nM | 12.5 nM | 25.8 nM

— patent US8722683B2, “Benzodioxole piperazine compounds” (Hoffmann LA-Roche Inc., priority 2011, dated 2014)
